Experimental data as given in PubChem BioAssay (NCI).
“And” between values parts separate entries of the source, which are not always exact repeats. Identical values can stand only once.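 Step 1: Grow cells in 96-well plates. Step 2: Expose to compound for 48 hours at 5 concentrations. Step 3: Interpolate endpoints linearly; if unreached, use highest concentration. At the GI50, growth is halved. TGI denotes the concentration required for complete inhibition of growth.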

Tests used:
Experiment in all cases: inhibition of tumour cell growth, NCI panel, 48 h
786-0 renal = tested on: 786-0 renal
A498 renal = tested on: A498 renal
BT-549 breast = tested on: BT-549 breast
CAKI-1 renal = tested on: CAKI-1 renal
CCRF-CEM leukemia = tested on: CCRF-CEM leukemia
COLO 205 colon = tested on: COLO 205 colon
DU-145 prostate = tested on: DU-145 prostate
EKVX NSCLC = tested on: EKVX NSCLC
HCC-2998 colon = tested on: HCC-2998 colon
HCT-116 colon = tested on: HCT-116 colon
HCT-15 colon = tested on: HCT-15 colon
HL-60(TB) leukemia = tested on: HL-60(TB) leukemia
HOP-62 NSCLC = tested on: HOP-62 NSCLC
HOP-92 NSCLC = tested on: HOP-92 NSCLC
HS 578T breast = tested on: HS 578T breast
HT29 colon = tested on: HT29 colon
IGROV1 ovarian = tested on: IGROV1 ovarian
K-562 leukemia = tested on: K-562 leukemia
KM12 colon = tested on: KM12 colon
LOX IMVI melanoma = tested on: LOX IMVI melanoma
M14 melanoma = tested on: M14 melanoma
MALME-3M melanoma = tested on: MALME-3M melanoma
MCF7 breast = tested on: MCF7 breast
MDA-MB-231 breast = tested on: MDA-MB-231 breast
MDA-MB-435 = tested on: MDA-MB-435
MOLT-4 leukemia = tested on: MOLT-4 leukemia
NCI-H23 lung = tested on: NCI-H23 lung
NCI-H460 lung = tested on: NCI-H460 lung
NCI-H522 lung = tested on: NCI-H522 lung
NCI/ADR-RES ovarian = tested on: NCI/ADR-RES ovarian
OVCAR-4 ovarian = tested on: OVCAR-4 ovarian
OVCAR-5 ovarian = tested on: OVCAR-5 ovarian
OVCAR-8 ovarian = tested on: OVCAR-8 ovarian
PC-3 prostate = tested on: PC-3 prostate
RPMI-8226 leukemia = tested on: RPMI-8226 leukemia
RXF 393 renal = tested on: RXF 393 renal
SF-268 CNS = tested on: SF-268 CNS
SF-539 CNS = tested on: SF-539 CNS
SK-MEL-28 melanoma = tested on: SK-MEL-28 melanoma
SK-OV-3 ovarian = tested on: SK-OV-3 ovarian
SN12C renal = tested on: SN12C renal
SNB-19 CNS = tested on: SNB-19 CNS
SNB-75 CNS = tested on: SNB-75 CNS
SW-620 colon = tested on: SW-620 colon
T-47D breast = tested on: T-47D breast
TK-10 renal = tested on: TK-10 renal
U251 CNS = tested on: U251 CNS
UACC-62 melanoma = tested on: UACC-62 melanoma
UO-31 renal = tested on: UO-31 renal

`C/C=C/C1=CN2C(=O)c3cc(OC4OC(C)C(NC)C(C)(O)C4O)c(C)cc3N=C[C@@H]2C1` (stereo partly specified) was tested, and the GI50 (786-0 renal) was 0.0226 µM, the TGI (786-0 renal) was 0.0493 µM and the GI50 (A498 renal) was 0.0173 µM. For the same compound, the TGI (A498 renal) was 0.0319 µM, the GI50 (BT-549 breast) was 0.0191 µM and the TGI (BT-549 breast) was 0.0408 µM. The GI50 (CAKI-1 renal) was 0.0391 µM, the GI50 (CCRF-CEM leukemia) was 0.013 µM and the GI50 (COLO 205 colon) was 0.0175 µM. For the same compound, the TGI (COLO 205 colon) was 0.0411 µM, the GI50 (DU-145 prostate) was 0.0382 µM and the TGI (DU-145 prostate) was 1.58 µM. For the same compound, the GI50 (EKVX NSCLC) was 0.242 µM, the TGI (EKVX NSCLC) was 0.0203 µM and the GI50 (HCC-2998 colon) was 0.0585 µM. The TGI (HCC-2998 colon) was 0.336 µM, the TGI (HCT-116 colon) was 11.6 µM and the GI50 (HCT-15 colon) was 0.174 µM. For the same compound, the TGI (HCT-15 colon) was 11.5 µM, the GI50 (HL-60(TB) leukemia) was 0.0211 µM and the TGI (HL-60(TB) leukemia) was 0.101 µM. It also gave a GI50 (HOP-62 NSCLC) of 0.0222 µM, a TGI (HOP-62 NSCLC) of 0.0703 µM and a GI50 (HOP-92 NSCLC) of 0.0687 µM. For the same compound, the TGI (HOP-92 NSCLC) was greater than 100 µM, the GI50 (HS 578T breast) was 0.0539 µM and the GI50 (HT29 colon) was 0.0242 µM. It also gave a TGI (HT29 colon) of 0.066 µM, a GI50 (IGROV1 ovarian) of 0.03 µM and a GI50 (K-562 leukemia) of 0.0258 µM. The GI50 (KM12 colon) was 0.0345 µM, the TGI (KM12 colon) was 0.544 µM and the GI50 (LOX IMVI melanoma) was 0.0133 µM. For the same compound, the TGI (LOX IMVI melanoma) was 0.0415 µM, the GI50 (M14 melanoma) was 0.0141 µM and the TGI (M14 melanoma) was 0.0312 µM. For the same compound, the GI50 (MALME-3M melanoma) was 0.0201 µM, the TGI (MALME-3M melanoma) was 0.0396 µM and the GI50 (MCF7 breast) was 0.00847 µM. The TGI (MCF7 breast) was 11.9 µM, the GI50 (MDA-MB-231 breast) was 0.0357 µM and the TGI (MDA-MB-231 breast) was 17.1 µM. For the same compound, the GI50 (MDA-MB-435) was 0.0158 µM, the TGI (MDA-MB-435) was 0.032 µM and the GI50 (MOLT-4 leukemia) was 0.0124 µM. It also gave a TGI (MOLT-4 leukemia) of 0.178 µM, a GI50 (NCI-H23 lung) of 0.0197 µM and a TGI (NCI-H23 lung) of 0.282 µM. The GI50 (NCI-H460 lung) was 0.0237 µM, the GI50 (NCI-H522 lung) was 0.00762 µM and the TGI (NCI-H522 lung) was 0.0301 µM. For the same compound, the TGI (NCI/ADR-RES ovarian) was 0.735 µM, the GI50 (OVCAR-4 ovarian) was 0.0258 µM and the GI50 (OVCAR-5 ovarian) was 0.0431 µM. The TGI (OVCAR-5 ovarian) was 10.4 µM, the GI50 (OVCAR-8 ovarian) was 0.0179 µM and the TGI (OVCAR-8 ovarian) was 0.087 µM. It also gave a GI50 (PC-3 prostate) of 0.0441 µM, a TGI (PC-3 prostate) of 26.8 µM and a GI50 (RPMI-8226 leukemia) of 0.0246 µM. The TGI (RPMI-8226 leukemia) was 0.0947 µM, the GI50 (RXF 393 renal) was 0.014 µM and the TGI (RXF 393 renal) was 0.0315 µM. For the same compound, the GI50 (SF-268 CNS) was 0.0216 µM, the TGI (SF-268 CNS) was 0.0372 µM and the GI50 (SF-539 CNS) was 0.0183 µM. The TGI (SF-539 CNS) was 0.137 µM, the GI50 (SK-MEL-28 melanoma) was 0.0225 µM and the TGI (SK-MEL-28 melanoma) was 0.0508 µM. The TGI (SK-OV-3 ovarian) was 11.9 µM, the GI50 (SN12C renal) was 0.033 µM and the TGI (SN12C renal) was 11.1 µM. For the same compound, the GI50 (SNB-19 CNS) was 0.0307 µM, the TGI (SNB-19 CNS) was 12.4 µM and the GI50 (SNB-75 CNS) was 0.0159 µM. It also gave a TGI (SNB-75 CNS) of 0.0555 µM, a GI50 (SW-620 colon) of 0.0224 µM and a GI50 (T-47D breast) of 0.0247 µM. The GI50 (TK-10 renal) was 0.0264 µM, the TGI (TK-10 renal) was 0.0683 µM and the GI50 (U251 CNS) was 0.0148 µM. The TGI (U251 CNS) was 0.245 µM and 0.13 µM, the GI50 (UACC-62 melanoma) was 0.0167 µM and the TGI (UACC-62 melanoma) was 0.0361 µM. It also gave a GI50 (UO-31 renal) of 0.024 µM and a TGI (UO-31 renal) of 0.0596 µM.
